Assay results taken from US20260077047A1, “CANCER THERAPY” (TURBINE SIMULATED CELL TECHNOLOGIES LTD, priority 2022, published 2026).

Experiments:
Experiment in all cases: ATM inhibition viability assay (CTG) on cells ± NEK-1 knockout
Assay type in all cases: cell-based
Conditions in all cases: AZD1390 10 μM-0.00152 μM, 7 days, normalized to DMSO
[1] = tested on: Daoy cells ± NEK-1 knockout
Protocol: (§1) • i. Adhered cells were washed with 1 mL DPBS and trypsinised by addition of trypsin to 0.05% w/v and incubation under standard conditions. • ii. 1 mL cell culture medium was added to the detached cells to inhibit trypsin and suspended cells were centrifuged at 200×g for 5 minutes at room temperature. • iii. The supernatant was discarded and the cells were resuspended in 1 ml cell culture medium and exact cell number was determined using hemocytometer after Trypan blue staining. • iv. Cells were seeded according to table 5 in 90 μl/well in opaque 96-well plates in triplicate. Cells were grown overnight under standard conditions in complete culture medium (see 1c) […].
(§2) • v. Cells were treated with AZD1390 over the concentration range 10 μM-0.00152 μM, prepared by 10-point 3× serial dilutions from a 10 mM DMSO stock. Cells were incubated under standard conditions with the compounds for 7 days with refresh of the medium and drug twice a week. • vi. After the 7 day incubation, CGT assays were performed to assess cell viability.
(§3) Data showing cell viability for NEK1 knockout cell lines and NT cell lines are shown in FIGS. 4A-D. Data are normalized relative to cells treated with DMSO only.

[2] = tested on: HCC1806 cells ± NEK-1 knockout
Protocol: as §1, §2, §3

[3] = tested on: HSC-2 cells ± NEK-1 knockout
Protocol: as §1, §2, §3

Measured: effect on cell viability when combined with a NEK-1 knockout

CC(C)n1c(=O)n(C)c2cnc3cc(F)c(-c4ccc(OCCCN5CCCCC5)nc4)cc3c21 [AZD1390]
synergistic effect: [1] | [2] | [3]
